Reference: publication PMC2908295 (Journal of medicinal chemistry, 2010)
Square brackets hold non-standard residues; d marks the D form. Peptide text beside a SMILES is read from it. * marks the point of attachment. X1 = C[C@@H](CCC[N+](C)(C)C)C(=O)*; Tle = CC(C)(C)[C@H](N)C(=O)O

Assays:
PK analysis by LC/MS = format: in vivo; settings: rat, iv, 1 mg/kg
[1] = PK analysis by NTR-1 binding activity in plasma; format: in vivo; settings: rat, i.v., NTR-1 radiolabel competition assay
male Sprague-Dawley rats [2] = experiment: Acetic acid writhing model; format: in vivo; settings: rat, i.v., 3% acetic acid i.p. 20 min after drug, n = 3 for all doses
male Sprague-Dawley rats [3] = experiment: Hypothermia assay; format: in vivo; settings: rat
male Sprague-Dawley rats [4] = experiment: Hotplate model; format: in vivo, rat
rats = experiment: Chung model for neuropathic pain; format: in vivo; settings: rat, single dose of 10 mg/kg i.p., n = 5
[5] = rat hotplate, morphine 5 mg/kg i.p., n ≥ 6

| Structure (SMILES) | Tmax (PK analysis by LC/MS; in vivo) | half-life (PK analysis by LC/MS; plasma) | time until plasma NTR-1 binding returned to level of non-treated animals [1] | EC50 acetic acid writhing (male Sprague-Dawley rats [2]) | duration of drop in core body temperature (male Sprague-Dawley rats [3]; 10 mg/kg i.v., n ≥ 4) | EC50 hypothermia (area under the PD curves) (male Sprague-Dawley rats [3]; i.v., rectal temperature every 15 min for 4 h, n = 3 for all doses) | maximum response latency (male Sprague-Dawley rats [4]; rat hotplate, comparison with hydrolysis products, cut-off 30 s) | EC50 hotplate, i.m. (male Sprague-Dawley rats [4]; rat, i.m., assessed after 60 min, n = 3 for all doses) | EC50 hotplate, i.p. (male Sprague-Dawley rats [4]; rat, i.p., assessed after 60 min, n = 3 for all doses) | EC50 hotplate, i.v. (male Sprague-Dawley rats [4]; rat, i.v., assessed after 60 min, n = 3 for all doses) | EC50 hotplate, s.c. (male Sprague-Dawley rats [4]; rat, s.c., assessed after 60 min, n = 3 for all doses) | duration of maximal response, Chung model (rats) | maximal response (% of MPE), morphine benchmark (male Sprague-Dawley rats [4]; [5]) | time of return of response to baseline (male Sprague-Dawley rats [4]; [5]) | time to reach 100% MPE (male Sprague-Dawley rats [4]; [5]) |
| --- | --- | --- | --- | --- | --- | --- | --- | --- | --- | --- | --- | --- | --- | --- | --- |
| CC(C)C[C@H](NC(=O)[C@@H](NC(=O)[C@H](Cc1ccc(O)cc1)NC(=O)[C@@H]1CCCN1C(=O)[C@H](CCCNC(=N)N)NC(=O)[C@@H](C)CCC[N+](C)(C)C)C(C)(C)C)C(=O)O [Compound 1] (X1-RPY[Tle]L-OH; N-terminus assumed) | ≤ 5 min | 26.3 min | 60 min | 0.16 mg/kg | > 4 h | 0.78 mg/kg | 30 s | 2.45 mg/kg | 2.00 mg/kg | 2.64 mg/kg | 3.84 mg/kg | maintained for over one hour |  |  |  |
| CN1CC[C@]23c4c5ccc(O)c4O[C@H]2[C@@H](O)C=C[C@H]3[C@H]1C5 [morphine, reference compound] |  |  |  |  |  |  |  |  |  |  |  |  | 100% | ≤ 200 min | 15 to 30 min |
